Assay results reported in patent US12649723B2, “Carbonohydrazonoyl dicyanide compounds comprising 2 or more aryl or heteroaryl connected via linker and use thereof” (KOREA INSTITUTE OF SCIENCE AND TECHNOLOGY, priority 2020, dated 2026).

Key:
tau protein = target: T1, tau protein (Homo sapiens, UniProt P10636); test: Tau-BiFC cell model: inhibition of tau protein aggregation; type: cell-based; settings: for remaining activity at 10 µM: 48 h, compound 10 μM, BiFC fluorescence, Forskolin-only group = 100% tau protein-aggregated state, read-out: Response (% @10 μM); for IC50: Tau BiFC in cells, with Forskolin 30 μM, 48 hours
T1 construct: fused on or other part: Split fluorescent-protein halves for BiFC are fused to tau; In the published tau-BiFC line these are Venus VN173 and VC155
T1 sequence (P10636 2-441 isoform P10636-8 limits assumed): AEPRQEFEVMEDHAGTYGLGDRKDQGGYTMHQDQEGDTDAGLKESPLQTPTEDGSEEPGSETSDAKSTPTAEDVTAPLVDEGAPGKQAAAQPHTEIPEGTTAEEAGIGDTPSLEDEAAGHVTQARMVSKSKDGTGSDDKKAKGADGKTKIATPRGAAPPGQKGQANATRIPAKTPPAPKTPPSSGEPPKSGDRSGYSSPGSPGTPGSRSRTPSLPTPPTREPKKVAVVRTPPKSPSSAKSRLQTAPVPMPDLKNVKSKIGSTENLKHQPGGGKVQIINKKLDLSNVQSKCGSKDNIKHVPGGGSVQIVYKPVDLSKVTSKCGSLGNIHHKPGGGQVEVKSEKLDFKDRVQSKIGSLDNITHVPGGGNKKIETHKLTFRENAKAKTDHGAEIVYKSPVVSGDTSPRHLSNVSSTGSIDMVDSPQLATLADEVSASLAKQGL
Protocol: (§1) In order to select novel tau protein aggregation-inhibiting substances, tau-BiFC cell model, in which formation of tau oligomers in living cells is easily observed, was used. Tau-BiFC cells were aliquoted into a 384-well plate. On the next day, the cells were treated with each of the compounds prepared according to Examples 1 to 175 at concentrations of 1 μM, 3 μM, and 10 μM, together with Forskolin (at a treatment concentration of 30 μM), which is a compound inducing tau protein aggregation by activating tau […] PKA. After 48 hours, nuclei in the cells were stained using Hoechst (at a treatment concentration of 2 μg/mL), and BiFC fluorescence intensity was automatically measured using Operetta (PerkinElmer) to count stained nuclei in each well out of the entire well plate. The group treated only with Forskolin, which induces tau protein aggregation, was set to a reference point of a 100% tau protein-aggregated state, and the effects of the compounds were confirmed using the equation “BiFC fluorescence intensity due to compound synthesized according to embodiment of present invention/(fluorescence intensity of control group treated only with Forskolin inducing tau protein aggregation−fluorescence intensity of untreated control group)×100”. Furthermore, the degree of cytotoxicity induced by the newly synthesized compound was also measured based on the 100% cell viability of the group treated only with Forskolin as a reference, and the cytotoxicity value of each compound was calculated using the equation “(number of stained nuclei in group treated with compound/number of stained nuclei in group treated with Forskolin)×100”. Based on the treatment results, substances inhibiting intracellular tau protein aggregation were selected from a series of candidate groups showing a tau protein aggregation inhibition rate of 70% or more and cell viability of 100% at a compound treatment concentration of 10 μM or more.
(§2) In order to evaluate dose-dependent tau protein aggregation inhibition effects of the compounds selected according to Experimental Example 1 on tau protein aggregation, tau-BiFC cells were treated with the selected compounds at concentrations of 0.03 μM, […], 0.3 μM, 1 μM, 3 μM, 10 μM, and 30 μM, respectively, together with Forskolin (at a treatment concentration of 30 μM), which is a tau protein aggregation inducing substance. After 48 hours, tau protein aggregation reaction and degrees of cytotoxicity were analyzed by observing images of the cells. IC50 and toxicity of the compounds were analyzed by way of nonlinear regression analysis of prism software (Graph Pad).

Tau-BiFC cells = test: Cell viability (cytotoxicity) in tau-BiFC cells, count of stained nuclei; type: cell-based; settings: compound 10 μM; Forskolin-only group = 100% cell viability
Protocol: as §1, §2

Structure (SMILES) | remaining activity at 10 µM (tau protein) | Cell viability (% @10 μM) (Tau-BiFC cells) | IC50 (tau protein)
N#CC(C#N)=NNc1ccc(Oc2ccccc2)c(C(F)(F)F)c1 [Compound 73, (4-phenoxy-3-(trifluoromethyl)phenyl)carbonohydrazonoyl dicyanide] | 0% | 49.6% | 
N#CC(C#N)=NNc1ccc(OCc2cnccn2)cc1 [Compound 125, (4-(pyrazin-2-ylmethoxy)phenyl)carbonohydrazonoyl dicyanide] | 0% | 140.5% | 2.3 µM
N#CC(C#N)=NNc1ccc(NC(=O)c2cccc(F)c2)nc1 [Compound 18, (6-(3-fluorobenzamido)pyridin-3-yl)carbonohydrazonoyl dicyanide] | 0% | 113% | 0.66 µM
N#CC(C#N)=NNc1ccc(C(=O)Nc2cccnc2)nc1 [Compound 40, (6-(pyridin-3-ylcarbamoyl)pyridin-3-yl)carbonohydrazonoyl dicyanide] | 7.9% | 130.7% | 
CN(N=C(C#N)C#N)c1ccc(Oc2ccccc2)c(F)c1 [Compound 77, (3-fluoro-4-phenoxyphenyl)(methyl)carbonohydrazonoyl dicyanide] | 84.8% | 91.6% | 
Cc1ccc(COc2ccc(NN=C(C#N)C#N)cc2C(F)(F)F)cc1 [Compound 132, (4-(4-methylbenzyloxy)-3-(trifluoromethyl)phenyl)carbonohydrazonoyl dicyanide] | 0% | 39.2% | 
N#CC(C#N)=NNc1ccc(OCCc2ccc(Cl)cc2)cc1 [Compound 123, (4-(4-chlorophenethoxy)phenyl)carbonohydrazonoyl dicyanide] | 0% | 34.6% | 0.78 µM
N#CC(C#N)=NNc1ccc(Oc2cccnc2)c(F)c1 [Compound 72, (3-fluoro-4-(pyridin-3-yloxy)phenyl)carbonohydrazonoyl dicyanide] | 0% | 129.5% | 1.99 µM
Cc1ccc(NC(=O)c2ccc(NN=C(C#N)C#N)cn2)cc1 [Compound 34, (6-(p-tolylcarbamoyl)pyridin-3-yl)carbonohydrazonoyl dicyanide] | 76% | 88.1% | 9 µM
N#CC(C#N)=NNc1ccc(Oc2cccc(C#N)c2)cc1 [Compound 88, (4-(3-cyanophenoxy)phenyl)carbonohydrazonoyl dicyanide] | 0% | 44.4% | 3.06 µM
Cc1cnc(NC(=O)c2ccc(NN=C(C#N)C#N)c(F)c2)cn1 [Compound 56, (2-fluoro-4-(5-methylpyrazin-2-ylcarbamoyl)phenyl)carbonohydrazonoyl dicyanide] | 0% | 129.9% | 1.85 µM
Cc1cnc(C(=O)Nc2ncc(NN=C(C#N)C#N)cc2C)cn1 [Compound 12, (5-methyl-6-(5-methylpyrazine-2-carboxamido)pyridin-3-yl)carbonohydrazonoyl dicyanide] | 17.9% | 122.1% | 0.64 µM
Cc1ccc(COc2ccc(NN=C(C#N)C#N)cn2)cc1 [Compound 99, (6-(4-methylbenzyloxy)pyridin-3-yl)carbonohydrazonoyl dicyanide] | 0% | 29.2% | 0.24 µM
N#CC(C#N)=NNc1ccc(OCCc2ccc(C(F)(F)F)cc2)nc1 [Compound 103, (6-(4-(trifluoromethyl)phenethoxy)pyridin-3-yl)carbonohydrazonoyl dicyanide] | 0% | 37.9% | 2.35 µM
N#CC(C#N)=NNc1ccc(OCc2nc3ccccc3[nH]2)cc1 [Compound 126, (4-((1H-benzo[d]imidazol-2-yl)methoxy)phenyl)carbonohydrazonoyl dicyanide] | 0% | 133.2% | 0.1 µM
N#CC(C#N)=NNc1ccc(NC(=O)c2ccccc2F)nc1 [Compound 17, (6-(2-fluorobenzamido)pyridin-3-yl)carbonohydrazonoyl dicyanide] | 0% | 102.7% | 0.31 µM
N#CC(C#N)=NNc1ccc(NC(=O)c2ncccn2)nc1 [Compound 29, (6-(pyrimidine-2-carboxamido)pyridin-3-yl)carbonohydrazonoyl dicyanide] | 0% | 139.9% | 1.04 µM
COc1cc(NN=C(C#N)C#N)ccc1C(=O)Nc1cncc(C)c1 [Compound 107, (3-methoxy-4-(5-methylpyridin-3-ylcarbamoyl)phenyl)carbonohydrazonoyl dicyanide] | 0% | 137.9% | 0.6 µM
N#CC(C#N)=NNc1ccc(C(=O)Nc2cncnc2)nc1 [Compound 42, (6-(pyrimidin-5-ylcarbamoyl)pyridin-3-yl)carbonohydrazonoyl dicyanide] | 0% | 123.1% | 
Cc1cncc(NC(=O)c2ccc(NN=C(C#N)C#N)cc2)c1 [Compound 48, (4-(5-methylpyridin-3-ylcarbamoyl)phenyl)carbonohydrazonoyl dicyanide] | 0% | 122.3% | 
N#CC(C#N)=NNc1ccc(Oc2ccccc2C#N)cc1 [Compound 86, (4-(2-cyanophenoxy)phenyl)carbonohydrazonoyl dicyanide] | 0% | 72.6% | 2.12 µM
N#CC(C#N)=NNc1ccc(Oc2cncnc2)c(F)c1 [Compound 82, (3-fluoro-4-(pyrimidin-5-yloxy)phenyl)carbonohydrazonoyl dicyanide] | 0% | 126.4% | 2.96 µM
N#CC(C#N)=NNc1ccc(OCc2ccc(C(F)(F)F)cc2)nc1 [Compound 96, (6-(4-(trifluoromethyl)benzyloxy)pyridin-3-yl)carbonohydrazonoyl dicyanide] | 0% | 27.5% | 0.4 µM
N#CC(C#N)=NNc1ccc(OCCc2ccc(C(F)(F)F)cc2)c(C(F)(F)F)c1 [Compound 135, (3-(trifluoromethyl)-4-(4-(trifluoromethyl)phenethoxy)phenyl)carbonohydrazonoyl dicyanide] | 0% | 41.7% | 
N#CC(C#N)=NNc1ccc(C(=O)Nc2ccc(Cl)cc2)nc1 [Compound 37, (6-(4-chlorophenylcarbamoyl)pyridin-3-yl)carbonohydrazonoyl dicyanide] | 62.7% | 117.8% | 
N#CC(C#N)=NNc1ccc(OCc2ccccc2)c(C(F)(F)F)c1 [Compound 97, (4-(benzyloxy)-3-(trifluoromethyl)phenyl)carbonohydrazonoyl dicyanide] | 0% | 27.1% | 0.1 µM
N#CC(C#N)=NNc1ccc(OCc2ccc(C(F)(F)F)cc2)cc1 [Compound 118, (4-(4-(trifluoromethyl)benzyloxy)phenyl)carbonohydrazonoyl dicyanide] | 25.7% | 82.6% | 5.75 µM
